Reference: patent US20250281620A1, “HYDROXYBISPHOSPHONIC DERIVATIVES OF MELOXICAM FOR THE TREATMENT OF INFLAMMATORY JOINT DISEASES” (Atlanthéra, priority 2021, published 2025)

What was measured:
Solubility in water = assay type: physicochemical; details: general statement, no method described
monoarthritis in rats = assay: mBSA-induced monoarthritis model in rats (knee swelling, limping); assay type: in vivo, rat; details: oral daily meloxicam 0.2 mg/kg
Method: Monoarthritis was induced in rats (male, Sprague Dawley strain, aged 14 weeks) by intra-articular injection (knee) of 100 μg of mBSA after two preliminary sensitizers (2 and 3 weeks before the induction) by subcutaneous injection of a CFA emulsion containing 500 μg of mBSA. The distribution was carried out on D2, 24 h after induction, as a function of the intensity of the swelling in order to obtain homogeneity between the groups. […] The HBP-meloxicam molecules were solubilized in 5% glucose. In control, the pathological animals (mBSA) received a single injection (caudal vein, 5 min infusion, volume of 10 mL/kg) of 5% glucose.
In reference treatment, the animals received an oral daily administration of meloxicam for 28 days at the NOEL dose of 0.2 mg/kg-0.57 μmol/kg, i.e., a cumulative dose of 15.96 μmol/kg.
The evolution of arthritis was monitored by measuring the swelling of the pathological knee as well as the animal's limping.

## Cc1cnc(NC(=O)C2=C(O)c3ccccc3S(=O)(=O)N2C)s1 [meloxicam]
Solubility in water
  solubility in water: very poorly soluble
Monoarthritis in rats
  end of limping after treatment: 9 days
